Values of other authors, collected in patent publication US5084274A, “Inhibition of arterial thrombotic occlusion or thromboembolism” (Scripps Clinic and Research Foundation, priority 1987, dated 1992).

Test system: acute arterial thrombosis
Conditions: used alone or in combination

## heparin
  Response of acute complex arterial thrombosis (in words): unresponsive
